This is an account of results in patent publication US7875282B2 (Cordis Corporation, priority 2004, dated 2011).

What is called IC50 is the concentration that inhibits the measured activity by half.

Data set [1] in a line: In vivo release kinetics from rapamycin, mycophenolic acid and polymer coating, porcine pharmacokinetics studies. The conditions noted are these: one hundred eighty micro grams each drug.
Data set [2] relates to human coronary artery smooth muscle cells. Put plainly: Anti-proliferative activity in non-synchronized cultured cells stimulated with two percent fetal bovine serum. In kind it is cell-based. Conditions: for effect of addition on the anti-proliferative activity of rapamycin: non-synchronized cells, added to rapamycin. From the text: The multiple curves represent various concentrations of mycophenolic acid ranging from zero to one thousand nanomolar concentrations.
FIG. 58 illustrates, in graphical format, the anti-proliferative activity of cladribine in non-synchronized cultured human coronary artery smooth muscle cells stimulated with two percent fetal bovine serum.
The multiple curves represent various concentrations of cladribine ranging from zero to nine hundred nanomolar concentrations.

The test system is the same in data set [3]. Put plainly: Anti-proliferative activity in synchronized cultured cells stimulated with two percent fetal bovine serum. In kind it is cell-based. The conditions noted are these: for effect of addition on the anti-proliferative activity of rapamycin: added to rapamycin. The source says: The multiple curves represent various concentrations of topotecan ranging from zero to three hundred nanomolar concentrations.
The multiple curves represent various concentrations of etoposide ranging from zero to eight hundred nanomolar concentrations.
The multiple curves represent various concentrations of Panzem® ranging from zero to 100 micromolar concentrations.

Data set [4] relates to human smooth muscle cells. Put plainly: PDGF-stimulated proliferation of human smooth muscle cells, cell count. Conditions: from IC50 values. In kind it is cell-based. As for the experimental part: To assess the ability of cladribine to prevent cell proliferation, human smooth muscle or endothelial cells (Clonetics, Walkersville, Md.) were seeded at a density of 2000 cells/cm^2 (approximately 3600 cells/well) into each well of 12-well plates and cultured with 1.5 ml of growth medium containing five percent fetal calf serum (FCS). After twenty-four hours, the growth medium was changed and fresh medium containing 10 ng/ml platelet-derived growth factor AB (PDGF AB; LIFE Technologies), as well as various concentrations of cladribine (0.001-10,000 nM) were added with triplicate wells. Medium was replaced with fresh cladribine-containing medium after three days. On day six, cells were detached by trypsinization to yield a cell suspension, lightly centrifuged to pellet and then counted manually using a Neubauer hemocytometer system. Cell viability was assessed by trypan blue exclusion.

The nature of data set [5]: In vivo release kinetics from rapamycin, cladribine and polymer coating, porcine pharmacokinetics studies. Further details: species or system Yorkshire pigs. Conditions: Bx Velocity stents, BMA topcoat.
Excerpt: (§1) The basecoat is applied to Bx Velocity® stents and implanted into Yorkshire pigs.
as §1

The subject of a further data set is tumor cell lines. Conditions: Woo et al., J. Med Chem 2002; cited from earlier work.
The test system of data set [6] is human coronary artery smooth muscle cell. As to the kind of experiment: In vitro cell culture study of coronary artery smooth muscle cell proliferation. In kind it is cell-based. From the text: FIG. 51 is a graph of the inhibition of coronary artery smooth muscle cells by trichostatin A in a cell culture study.

For `COc1c(C)c2c(c(O)c1C/C=C(\C)CCC(=O)O)C(=O)OC2` [mycophenolic acid], the “elution from EVA/BMA basecoat compared with rapamycin” value in data set [1] is “elutes more completely over a shorter duration than the rapamycin”. The “effect of addition on the anti-proliferative activity of rapamycin” value (from here on “effect of addition”) in data set [2] is given as “potentiates the anti-proliferative activity of rapamycin”.
On to `COc1cc2c(cc1O)CC[C@@H]1[C@@H]2CC[C@]2(C)[C@@H](O)CC[C@@H]12` [Panzem®, 2-methoxyestradiol], for which the “effect of addition” value in data set [3] was “increases the percent of inhibition of rapamycin alone”. Besides, in data set [3] (agent alone), the anti-proliferative activity entry is recorded as “extremely effective inhibitor of human coronary artery smooth muscle cell proliferation”.
`Nc1nc(Cl)nc2c1ncn2[C@H]1C[C@H](O)[C@@H](CO)O1` [cladribine, 2-chlorodeoxyadenosine]: in data set [4], the “potency as inhibitor of smooth muscle cells relative to endothelial cells” value was “approximately twice”. In data set [5], the “elution from EVA/BMA basecoat compared with rapamycin” value is given as “elutes more rapidly than rapamycin”. In data set [2], the “effect of addition” value is reported as “increases the percent inhibition of rapamycin alone”. Moreover, the “inhibition of human coronary artery smooth muscle cell proliferation” value in data set [2] (non-synchronized, two percent fetal bovine serum) is listed as “completely inhibits”.
In the case of `COc1cc([C@@H]2c3cc4c(cc3[C@@H](O[C@@H]3O[C@@H]5CO[C@@H](C)O[C@H]5[C@H](O)[C@H]3O)[C@H]3COC(=O)[C@H]23)OCO4)cc(OC)c1O` [etoposide], the “effect of addition” value in data set [3] is reported as “increases the percent inhibition of rapamycin alone”.
`CC[C@@]1(O)C(=O)OCc2c1cc1n(c2=O)Cc2cc3c(CN(C)C)c(O)ccc3nc2-1` [topotecan]: the “effect of addition” value in data set [3] is listed as “increases the percent inhibition of rapamycin alone”.
Take `CC(/C=C/C(=O)NO)=C\[C@@H](C)C(=O)c1ccc(N(C)C)cc1` [trichostatin A]: the “anti-proliferative IC50's” value in the data set on tumor cell lines was “low nM range”. Also, the “inhibition of human coronary artery smooth muscle cell proliferation” value in data set [6] is on record as “completely inhibit”. In addition, in data set [6] (read-out: anti-proliferative IC50), the IC50 is ~6 nM.
